This note sets out measurements from PMC11985751, “Synthesis, bioactivity, and molecular docking studies: novel arylpiperazine derivatives as potential new-resistant AR antagonists” (Frontiers in Chemistry, 2025).

Structures are written as SMILES.

In assay [1] the test system is PC-3. As to the kind of experiment: In vitro cytotoxicity, CCK-8 assay. It is filed as cell-based, human. Particulars: CCK-8, mean ± SD of three trials. Here is the method:
(§1) PC-3 and WPMY-1 cells were cultured in Dulbecco’s modiffcation Eagle’s medium (DMEM, Invitrogen, Carlsbad, CA, United States) supplemented with 10% fetal bovine serum (FBS, Hyclone, Logan, UT, United States), 100 U/mL penicillin and 0.1 mg/mL streptomycin (Invitrogen). DU145 cells were cultured in RPMI1640 media supplemented with 10% fetal bovine serum (FBS, Hyclone), 100 U/mL penicillin and 0.1 mg/mL streptomycin (Invitrogen). LNCaP cells were cultured in F12 media supplemented with 10% fetal bovine serum (FBS, Hyclone), 100 U/mL penicillin and 0.1 mg/mL streptomycin (Invitrogen). The cells were incubated at 37°C in a humidified atmosphere with 5% CO2([Chen et al., 2025]; [Jiang et al., 2024]). […]
(§2) The compound concentrations were set at 30, 15, 7.5, 3.75, 1.88, and 0.94 μmol/L. The absorbance (A) was measured at 450 nm using a microplate reader. […] All experiments were repeated three times under identical conditions, and the mean value was taken as the final result.
(§3) The cytotoxic activity of derivatives 5–24 against three human prostate cancer cell lines (PC-3, LNCaP, and DU145) and one type of human normal prostate epithelial cells was evaluated using the CCK-8 method.
For orientation: Tetrazolium dyes change colour on reduction, which living cells bring about.

In assay [2] the test system is LNCaP. As to the kind of experiment: In vitro cytotoxicity, CCK-8 assay. Type of assay: cell-based, human. As to conditions: LNCaP cells, CCK-8, mean ± SD of three trials. Here is the method: PC-3 and WPMY-1 cells were cultured in Dulbecco’s modiffcation Eagle’s medium (DMEM, Invitrogen, Carlsbad, CA, United States) supplemented with 10% fetal bovine serum (FBS, Hyclone, Logan, UT, United States), 100 U/mL penicillin and 0.1 mg/mL streptomycin (Invitrogen). DU145 cells were cultured in RPMI1640 media supplemented with 10% fetal bovine serum (FBS, Hyclone), 100 U/mL penicillin and 0.1 mg/mL streptomycin (Invitrogen). LNCaP cells were cultured in F12 media supplemented with 10% fetal bovine serum (FBS, Hyclone), 100 U/mL penicillin and 0.1 mg/mL streptomycin (Invitrogen). The cells were incubated at 37°C in a humidified atmosphere with 5% CO2([Chen et al., 2025]; [Jiang et al., 2024]).
The proliferative capacity of cells was evaluated through the implementation of a Cell Counting Kit-8 (CCK-8) assay, supplied by Dojindo (Japan), to quantify cellular growth. Post-transfection, cells were dispensed into a 96-well microplate at a density of 3 × 10^3 cells per well and incubated for intervals of 0, 24, 48, 72, 96, and 120 h. Following this, 10 μL of the CCK-8 solution was introduced into each well and the plates were returned to the incubator for an additional 2-h period at 37°C under 5% CO2 conditions. Absorbance readings at 450 nm were subsequently taken using an ELISA reader manufactured by Bio Tek (United States) ([Chen et al., 2022]; [Zhou et al., 2024]).
as §2, §3

The test system of assay [3] is DU145. As to the kind of experiment: In vitro cytotoxicity, CCK-8 assay. Particulars: Homo sapiens, DU-145; DU145 cells, CCK-8, mean ± SD of three trials. It is filed as cell-based. Here is the method:
as §1, §2, §3

For assay [4], the system named is WPMY-1. As to the kind of experiment: In vitro cytotoxicity, CCK-8 assay (normal prostatic epithelial cells). Type of assay: cell-based. As to conditions: Homo sapiens; WPMY-1 normal prostatic epithelial cells, CCK-8, mean ± SD of three trials. Here is the method:
as §1, §2, §3

Assay [5] concerns the target T1, AR (Homo sapiens, UniProt P10275).
T1 sequence (P10275 1-920): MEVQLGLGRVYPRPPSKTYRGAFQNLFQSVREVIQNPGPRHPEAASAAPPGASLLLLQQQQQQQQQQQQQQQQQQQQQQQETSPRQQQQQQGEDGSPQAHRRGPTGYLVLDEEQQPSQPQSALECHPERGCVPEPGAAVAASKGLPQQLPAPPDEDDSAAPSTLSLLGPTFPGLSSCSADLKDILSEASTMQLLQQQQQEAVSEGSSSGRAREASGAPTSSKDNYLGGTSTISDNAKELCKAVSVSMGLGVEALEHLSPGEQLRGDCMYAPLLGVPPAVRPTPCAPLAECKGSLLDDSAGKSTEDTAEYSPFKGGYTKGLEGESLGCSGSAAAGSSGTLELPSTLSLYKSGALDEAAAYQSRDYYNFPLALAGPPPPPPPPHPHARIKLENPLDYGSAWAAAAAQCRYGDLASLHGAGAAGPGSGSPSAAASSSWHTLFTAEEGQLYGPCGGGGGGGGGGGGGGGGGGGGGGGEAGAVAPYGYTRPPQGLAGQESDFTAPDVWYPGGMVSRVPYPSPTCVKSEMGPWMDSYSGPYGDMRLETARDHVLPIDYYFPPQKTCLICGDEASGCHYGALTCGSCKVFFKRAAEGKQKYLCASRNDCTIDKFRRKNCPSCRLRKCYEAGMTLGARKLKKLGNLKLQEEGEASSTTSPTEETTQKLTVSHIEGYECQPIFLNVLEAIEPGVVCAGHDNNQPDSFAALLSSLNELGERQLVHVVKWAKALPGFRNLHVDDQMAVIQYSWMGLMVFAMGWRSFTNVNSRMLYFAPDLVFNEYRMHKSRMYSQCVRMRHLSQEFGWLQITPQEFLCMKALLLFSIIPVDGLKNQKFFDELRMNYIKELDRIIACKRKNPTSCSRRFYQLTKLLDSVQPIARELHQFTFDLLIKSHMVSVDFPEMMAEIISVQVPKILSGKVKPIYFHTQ
As to the kind of experiment: AR reporter gene (luciferase) assay, co-treatment with 1 nM R1881. It is filed as cell-based. Particulars: 10 μM compound, inhibition rate as ratio to R1881 control, read-out: AR antagonistic activity% (10 μM). Here is the method: RLUs were measured using a luminometer (GloMaxTM 96-Microplate Luminometer, Promega) and are reported as the mean ± SEM of three individual experiments. For agonists, fold of induction = LUinduced/RLUuninduced. For antagonists, % of control = 100 × RLU (agonist + antagonist)/RLU (agonist alone). All RLUs were normalized against ffreffy RLUs/Renilla RLUs. Data are expressed as EC50/IC50 values in μM, and the IC50 of […] (μM) was calculated by plotting the data using nonlinear regression analysis in Graph-Pad Prism 5 software.

In assay [6] the target is T2, AR-LBD (GST) (Rattus norvegicus, UniProt P15207).
T2 sequence (P15207 651-882 limits assumed): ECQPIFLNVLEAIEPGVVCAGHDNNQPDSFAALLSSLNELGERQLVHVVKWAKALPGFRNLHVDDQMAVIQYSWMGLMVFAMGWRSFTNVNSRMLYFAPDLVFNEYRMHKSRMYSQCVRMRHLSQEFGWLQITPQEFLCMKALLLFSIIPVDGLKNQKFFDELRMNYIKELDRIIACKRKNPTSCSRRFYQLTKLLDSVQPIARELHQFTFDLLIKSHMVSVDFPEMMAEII
As to the kind of experiment: Fluorescence polarization, PolarScreen AR Competitor Assay, Green. A general note: Polarisation of emitted light reports the rotation of a fluorescent probe.
Procedure: Brieffy, the assay entails titration of the test compound against a preformed complex of Fluormone™AL Green and the AR-LBD (GST). […] Data analysis for the ligand binding assays was performed using Prism software (GraphPad Software, Inc.).

As to `Cc1cc(C)cc(OCCc2ccc(CN3CCN(C(c4ccccc4)c4ccccc4)CC3)cc2)c1` [Compound 7, 1-benzhydryl-4-(4-(2-(3,5-dimethylphenoxy)ethyl)benzyl)piperazine], the IC50 (commonly the concentration that gives 50% inhibition) in assay [1] (Homo sapiens, PC-3, PC-3 cells) is less than 5 µM; in assay [1] (PC-3 cells) it was 2.95 ± 0.04 µM; in assay [2] (Homo sapiens, LNCaP), more than 50 µM; in assay [3], 24.76 ± 0.21 µM; in assay [4], more than 50 µM; in assay [6], 2.15 ± 0.13 µM. The activity at 10 µM in assay [5] was determined as 50.1 ± 1.1%.

`Clc1cc(Cl)cc(OCCc2ccc(CN3CCN(C(c4ccccc4)c4ccccc4)CC3)cc2)c1` [Compound 11, 1-benzhydryl-4-(4-(2-(3,5-dichlorophenoxy)ethyl)benzyl)piperazine]: the IC50 in assay [2] (Homo sapiens, LNCaP) is more than 50 µM; in assay [3], 17.43 ± 0.04 µM; in assay [4], more than 50 µM; in assay [6], 2.01 ± 0.15 µM. In addition, the activity at 10 µM in assay [5] was found to be 51.2 ± 1.3%.

Regarding `Clc1ccc(OCCc2ccc(CN3CCN(C(c4ccccc4)c4ccccc4)CC3)cc2)cc1` [Compound 21, 1-benzhydryl-4-(4-(2-(4-chlorophenoxy)ethyl)benzyl)piperazine], the IC50 is less than 5 µM in assay [1] (Homo sapiens, PC-3, PC-3 cells); 2.83 ± 0.21 µM in assay [1] (PC-3 cells); 16.09 ± 0.12 µM in assay [2] (Homo sapiens, LNCaP); 13.7 ± 0.14 µM in assay [3]; 28.65 ± 0.13 µM in assay [4]; 2.74 ± 0.16 µM in assay [6]. In assay [5], the activity at 10 µM worked out at 49.4 ± 0.8%.

As for `c1ccc(C(c2ccccc2)N2CCN(Cc3ccc(CCOc4cccc5ccccc45)cc3)CC2)cc1` [Compound 22, 1-benzhydryl-4-(4-(2-(naphthalen-1-yloxy)ethyl)benzyl)piperazine], the IC50 was 10.1 ± 0.17 µM in assay [1] (Homo sapiens, PC-3, PC-3 cells); 6.78 ± 0.14 µM in assay [2] (Homo sapiens, LNCaP); 15.76 ± 0.09 µM in assay [3]; 33.16 ± 0.15 µM in assay [4]; 3.02 ± 0.24 µM in assay [6]. The activity at 10 µM in assay [5] is 40.3 ± 1.2%.

For `Brc1ccc(OCCc2ccc(CN3CCN(C(c4ccccc4)c4ccccc4)CC3)cc2)cc1` [Compound 23, 1-benzhydryl-4-(4-(2-(4-bromophenoxy)ethyl)benzyl)piperazine], the concentration for half-maximal inhibition (IC50) is less than 5 µM in assay [2] (Homo sapiens, LNCaP); 3.86 ± 0.13 µM in assay [2]; 1.42 ± 0.11 µM in assay [3]; more than 50 µM in assay [4]; 1.72 ± 0.12 µM in assay [6]. In addition, the activity at 10 µM in assay [5] was more than 60%.

Take `FC(F)(F)c1ccc(OCCc2ccc(CN3CCN(C(c4ccccc4)c4ccccc4)CC3)cc2)cc1` [Compound 24, 1-benzhydryl-4-(4-(2-(4-(trifluoromethyl)phenoxy)ethyl)benzyl)piperazine]: the IC50 was less than 5 µM in assay [1] (Homo sapiens, PC-3, PC-3 cells); 3.94 ± 0.14 µM in assay [1] (PC-3 cells); 14.6 ± 0.18 µM in assay [2] (Homo sapiens, LNCaP); 5.76 ± 0.14 µM in assay [3]; more than 50 µM in assay [4]; 2.87 ± 0.22 µM in assay [6]. Moreover, the activity at 10 µM in assay [5] came to 47.3 ± 0.6%.
